Test results taken from the NIST ThermoML archive (doi:10.1016/j.jct.2009.04.001).

Tests used:
[1] = xn = mol fraction of the nth substance listed; settings: for surface tension liquid-gas: Pendant drop shape; for mass density: 101 kPa, Liquid, Vibrating tube method
[2] = for surface tension liquid-gas: Pendant drop shape; for mass density: Liquid, Vibrating tube method

COCCOC [1,2-dimethoxyethane] + Cc1ccccc1C
[1]
Settings | mass density [kg/m3] | surface tension liquid-gas [mN/m]
298.15 K, x1 = 0.0995 | 874.01 | 29.05
298.15 K, x1 = 0.1998 | 872.89 | 28.28
298.15 K, x1 = 0.3003 | 871.73 | 27.6
298.15 K, x1 = 0.4004 | 870.51 | 27.08
298.15 K, x1 = 0.4998 | 869.24 | 26.63
298.15 K, x1 = 0.6001 | 867.86 | 26.2
298.15 K, x1 = 0.7008 | 866.37 | 25.78
298.15 K, x1 = 0.7996 | 864.86 | 25.37
298.15 K, x1 = 0.8992 | 863.22 | 24.96
298.15 K, x1 = 0.95 | 862.34 | 24.64
298.15 K, x1 = 1 | 861.36 | 24.27
303.15 K, x1 = 0.0996 | 869.77 | 28.45
303.15 K, x1 = 0.1997 | 868.64 | 27.73
303.15 K, x1 = 0.3007 | 867.45 | 27.08
303.15 K, x1 = 0.3997 | 866.2 | 26.61
303.15 K, x1 = 0.5001 | 864.88 | 26.19
303.15 K, x1 = 0.6012 | 863.46 | 25.78
303.15 K, x1 = 0.7009 | 861.98 | 25.37
303.15 K, x1 = 0.7988 | 860.43 | 25
303.15 K, x1 = 0.8998 | 858.74 | 24.53
303.15 K, x1 = 0.9498 | 857.85 | 24.17
303.15 K, x1 = 1 | 856.8 | 23.73
308.15 K, x1 = 0.0998 | 865.45 | 27.92
308.15 K, x1 = 0.2005 | 864.2 | 27.23
308.15 K, x1 = 0.3003 | 862.9 | 26.61
308.15 K, x1 = 0.4009 | 861.51 | 26.17
308.15 K, x1 = 0.4991 | 860.07 | 25.77
308.15 K, x1 = 0.5995 | 858.53 | 25.39
308.15 K, x1 = 0.7013 | 856.88 | 24.99
308.15 K, x1 = 0.7991 | 855.2 | 24.58
308.15 K, x1 = 0.9008 | 853.35 | 24.07
308.15 K, x1 = 0.9503 | 852.39 | 23.66
308.15 K, x1 = 1 | 851.24 | 23.16

Cc1ccc(C)cc1 [1,4-dimethylbenzene]
[2]
Settings | surface tension liquid-gas [mN/m]
298.15 K | 28.11
303.15 K | 27.59
308.15 K | 27.07

[2], 101.33 kPa
Settings | mass density [kg/m3]
298.15 K | 856.95
303.15 K | 852.61
308.15 K | 848.27

Cc1ccccc1C [1,2-dimethylbenzene]
[2]
Settings | surface tension liquid-gas [mN/m]
298.15 K | 29.86
303.15 K | 29.18
308.15 K | 28.61

[2], 101.33 kPa
Settings | mass density [kg/m3]
298.15 K | 875.09
303.15 K | 870.86
308.15 K | 866.64

Cc1ccc(C)cc1 [1,4-dimethylbenzene] + COCCOC
[1], x2 = 0
Settings | mass density [kg/m3] | surface tension liquid-gas [mN/m]
298.15 K | 856.95 | 28.11
303.15 K | 852.61 | 27.59
308.15 K | 848.27 | 27.07

Cc1ccccc1C [1,2-dimethylbenzene] + COCCOC
[1], x2 = 0
Settings | mass density [kg/m3] | surface tension liquid-gas [mN/m]
298.15 K | 875.09 | 29.86
303.15 K | 870.86 | 29.18
308.15 K | 866.64 | 28.61

COCCOC [1,2-dimethoxyethane] + Cc1ccc(C)cc1
[1]
Settings | mass density [kg/m3] | surface tension liquid-gas [mN/m]
298.15 K, x1 = 0.1002 | 857.45 | 27.63
298.15 K, x1 = 0.2004 | 857.95 | 27.17
298.15 K, x1 = 0.2996 | 858.44 | 26.75
298.15 K, x1 = 0.4001 | 858.93 | 26.32
298.15 K, x1 = 0.5009 | 859.41 | 25.91
298.15 K, x1 = 0.5997 | 859.85 | 25.54
298.15 K, x1 = 0.7018 | 860.28 | 25.18
298.15 K, x1 = 0.8005 | 860.66 | 24.87
298.15 K, x1 = 0.8998 | 861.02 | 24.57
298.15 K, x1 = 1 | 861.36 | 24.27
303.15 K, x1 = 0.0999 | 853.1 | 27.12
303.15 K, x1 = 0.2007 | 853.58 | 26.67
303.15 K, x1 = 0.3002 | 854.06 | 26.24
303.15 K, x1 = 0.3999 | 854.52 | 25.82
303.15 K, x1 = 0.4999 | 854.97 | 25.41
303.15 K, x1 = 0.6001 | 855.4 | 25.03
303.15 K, x1 = 0.7011 | 855.81 | 24.68
303.15 K, x1 = 0.8003 | 856.19 | 24.37
303.15 K, x1 = 0.9003 | 856.52 | 24.05
303.15 K, x1 = 1 | 856.79 | 23.73
308.15 K, x1 = 0.0996 | 848.66 | 26.61
308.15 K, x1 = 0.1998 | 849.05 | 26.16
308.15 K, x1 = 0.2997 | 849.41 | 25.73
308.15 K, x1 = 0.4001 | 849.76 | 25.3
308.15 K, x1 = 0.4995 | 850.09 | 24.89
308.15 K, x1 = 0.6004 | 850.4 | 24.51
308.15 K, x1 = 0.6993 | 850.67 | 24.17
308.15 K, x1 = 0.7993 | 850.93 | 23.84
308.15 K, x1 = 0.8998 | 851.14 | 23.5
308.15 K, x1 = 1 | 851.24 | 23.16

COCCOC [1,2-dimethoxyethane]
[2]
Settings | surface tension liquid-gas [mN/m]
298.15 K | 24.27
303.15 K | 23.73
308.15 K | 23.16

mass density [kg/m3], [2]
Settings | 298.15 K | 303.15 K | 308.15 K
101 kPa | – | 856.8 | –
101.33 kPa | 861.36 | 856.79 | 851.24
